In ChEMBL document CHEMBL1147043, “Comparative metabolism of radiolabeled muraglitazar in animals and humans by quantitative and qualitative metabolite profiling” (Drug Metab Dispos, 2007):

Legend:
[1] = test system: Rattus norvegicus; test: Biodistribution in orally dosed Sprague-Dawley rat urine assessed as 12-hydroxy muraglitazar level by LC/MS analysis; format: ADME, organism-based; conditions: in vivo, po
[2] = test system: Plasma; test: Biodistribution in orally dosed cynomolgus monkey plasma assessed as […] muraglitazar level after 1 hr by LC/MS analysis; format: ADME, organism-based, Macaca fascicularis; conditions: in vivo, po
[3] = Drug concentration in Beagle dog feces assessed as recovery of radioactive dose at 1.9 mg/kg, po after 168 hrs; format: ADME, organism-based, Canis lupus familiaris; set-up: dose 1.9 mg/kg, route oral; conditions: in vivo
[4] = Metabolic stability in CD1 mouse hepatocytes assessed as 12,17-dihydroxy muraglitazar level by LC/MS analysis relative to control; format: ADME, cell-based, Hepatocyte
[5] = test system: Plasma; test: Biodistribution in orally dosed human plasma assessed as 12-hydroxy-O-demethyl muraglitazar level after 12 hrs by LC/MS analysis; format: ADME, organism-based; conditions: in vivo, po
[6] = test system: Plasma; test: Biodistribution in orally dosed human plasma assessed as 12,17-dihydroxy muraglitazar level after 4 hrs by LC/MS analysis; format: ADME, organism-based; conditions: in vivo, po
[7] = test system: Rattus norvegicus; test: Biodistribution in orally dosed Sprague-Dawley rat feces assessed as 8-hydroxy-O-demethyl muraglitazar level by LC/MS analysis; format: ADME, organism-based; conditions: in vivo, po
[8] = Drug concentration in bile duct-cannulated CD1 mouse feces assessed as recovery of radioactive dose at 1 mg/kg, po after 24 hrs; format: ADME, organism-based; set-up: dose 1 mg/kg, route oral; conditions: in vivo
[9] = Biodistribution in orally dosed Beagle dog feces assessed as acetylimide derivative of muraglitazar level by LC/MS analysis; format: ADME, organism-based, Canis lupus familiaris; conditions: in vivo, po
[10] = test system: Plasma; test: Biodistribution in orally dosed cynomolgus monkey plasma assessed as O-demethyl muraglitazar level after 1 hr by LC/MS analysis; format: ADME, organism-based, Macaca fascicularis; conditions: in vivo, po
[11] = Drug concentration in human urine at 10 mg/kg, po after 8 hrs; format: ADME, organism-based; set-up: dose 10 mg/kg, route oral; conditions: read-out: Drug uptake
[12] = test system: Plasma; test: Biodistribution in orally dosed cynomolgus monkey plasma assessed as muraglitazar 12-carboxylic acid level after 12 hrs by LC/MS analysis; format: ADME, organism-based, Macaca fascicularis; conditions: in vivo, po
[13] = Half life in human at 10 mg, po after 72 hrs; format: ADME, organism-based; conditions: in vivo
[14] = test system: Plasma; test: Biodistribution in orally dosed human plasma assessed as O-demethyl muraglitazar level after 1 hr by LC/MS analysis; format: ADME, organism-based; conditions: in vivo, po
[15] = Biodistribution in orally dosed human feces assessed as 8,12-dihydroxy muraglitazar level by LC/MS analysis; format: ADME, organism-based; conditions: in vivo, po
[16] = test system: Rattus norvegicus; test: Biodistribution in orally dosed Sprague-Dawley rat urine assessed as O-demethyl muraglitazar level by LC/MS analysis; format: ADME, organism-based; conditions: in vivo, po
[17] = test system: Hepatocyte; test: Metabolic stability in Sprague-Dawley rat hepatocytes assessed as O-Dealkyl muraglitazar level by LC/MS analysis relative to control; format: ADME, cell-based
[18] = test system: Plasma; test: Biodistribution in orally dosed human plasma assessed as 12-dihydroxy muraglitazar level after 12 hrs by LC/MS analysis; format: ADME, organism-based; conditions: in vivo, po
[19] = test system: Rattus norvegicus; test: Biodistribution in orally dosed Sprague-Dawley rat urine assessed as 8-hydroxy-O-demethyl muraglitazar level by LC/MS analysis; format: ADME, organism-based; conditions: in vivo, po
[20] = test system: Plasma; test: Biodistribution in orally dosed cynomolgus monkey plasma assessed as O-demethyl muraglitazar glucuronide level after 4 hrs by LC/MS analysis; format: ADME, organism-based, Macaca fascicularis; conditions: in vivo, po
[21] = Biodistribution in orally dosed human urine assessed as 12-hydroxy muraglitazar level by LC/MS analysis; format: ADME, organism-based; conditions: in vivo, po
[22] = Biodistribution in orally dosed cynomolgus monkey urine assessed as 12-hydroxy-O-demethyl muraglitazar level by LC/MS analysis; format: ADME, organism-based, Macaca fascicularis; conditions: in vivo, po
[23] = Metabolic stability in CD1 mouse hepatocytes assessed as 17-hydroxy-O-demethyl muraglitazar level by LC/MS analysis relative to control; format: ADME, cell-based, Hepatocyte
[24] = Biodistribution in orally dosed cynomolgus monkey feces assessed as imide derivative of muraglitazar level by LC/MS analysis; format: ADME, organism-based, Macaca fascicularis; conditions: in vivo, po
[25] = test system: Canis familiaris; test: Cmax in Beagle dog at 2 mg/kg, po after 4 hrs; format: ADME, organism-based, Canis lupus familiaris; set-up: dose 2 mg/kg, route oral; conditions: in vivo
[26] = Metabolic stability in CD1 mouse hepatocytes assessed as di-oxygenated muraglitazar level by LC/MS analysis relative to control; format: ADME, cell-based, Hepatocyte
[27] = test system: Hepatocyte; test: Metabolic stability in human hepatocytes assessed as 17-hydroxy muraglitazar level by LC/MS analysis relative to control; format: ADME, cell-based
[28] = Biodistribution in orally dosed human feces assessed as O-demethyl muraglitazar level by LC/MS analysis; format: ADME, organism-based; conditions: in vivo, po
[29] = Drug concentration in Sprague-Dawley rat feces assessed as recovery of radioactive dose at 11 mg/kg, po after 168 hrs; format: ADME, organism-based; set-up: dose 11 mg/kg, route oral; conditions: in vivo
[30] = Metabolic stability in CD1 mouse hepatocytes assessed as radioactivity recovaries at 25.6 ug/mL after 4 hrs; format: ADME, cell-based, Hepatocyte
[31] = Fecal excretion of compound in orally dosed cynomolgus monkey within 48 hrs; format: ADME, organism-based, Macaca fascicularis; conditions: faeces, po, read-out: Activity
[32] = test system: Plasma; test: Biodistribution in orally dosed human plasma assessed as 12-dihydroxy muraglitazar level after 4 hrs by LC/MS analysis; format: ADME, organism-based; conditions: in vivo, po
[33] = test system: Plasma; test: Biodistribution in orally dosed human plasma assessed as muraglitazar glucuronide level after 1 hr by LC/MS analysis; format: ADME, organism-based; conditions: in vivo, po
[34] = Biodistribution in orally dosed human feces assessed as O-dealkyl muraglitazar level by LC/MS analysis; format: ADME, organism-based; conditions: in vivo, po
[35] = test system: Hepatocyte; test: Metabolic stability in Sprague-Dawley rat hepatocytes assessed as 8-hydroxy-O-demethyl muraglitazar level by LC/MS analysis relative to control; format: ADME, cell-based
[36] = test system: Plasma; test: Biodistribution in orally dosed cynomolgus monkey plasma assessed as 12-dihydroxy muraglitazar level after 4 hrs by LC/MS analysis; format: ADME, organism-based, Macaca fascicularis; conditions: in vivo, po
[37] = Metabolic stability in cynomolgus monkey hepatocytes assessed as 12,17-dihydroxy muraglitazar level by LC/MS analysis relative to control; format: ADME, cell-based, Macaca fascicularis, Hepatocyte
[38] = test system: Plasma; test: Biodistribution in orally dosed human plasma assessed as 8-hydroxy-O-demethyl muraglitazar level after 4 hrs by LC/MS analysis; format: ADME, organism-based; conditions: in vivo, po
[39] = test system: Hepatocyte; test: Metabolic stability in human hepatocytes assessed as 9-hydroxy muraglitazar level by LC/MS analysis relative to control; format: ADME, cell-based
[40] = Biodistribution in orally dosed cynomolgus monkey urine assessed as 8-hydroxy-O-demethyl muraglitazar level by LC/MS analysis; format: ADME, organism-based, Macaca fascicularis; conditions: in vivo, po
[41] = Biodistribution in orally dosed human feces assessed as 8-hydroxy muraglitazar level by LC/MS analysis; format: ADME, organism-based; conditions: in vivo, po
[42] = Metabolic stability in CD1 mouse hepatocytes assessed as muraglitazar 12-carboxylic acid level by LC/MS analysis relative to control; format: ADME, cell-based, Hepatocyte
[43] = test system: Rattus norvegicus; test: Biodistribution in orally dosed Sprague-Dawley rat urine assessed as 17-hydroxy-O-demethyl muraglitazar level by LC/MS analysis; format: ADME, organism-based; conditions: in vivo, po
[44] = Fecal excretion rate in orally dosed Beagle dog within 24 hrs; format: ADME, organism-based, Canis lupus familiaris; conditions: faeces, po, read-out: Activity
[45] = Drug concentration in Sprague-Dawley rat urine at 11 mg/kg, po after 12 hrs; format: ADME, organism-based; set-up: dose 11 mg/kg, route oral; conditions: read-out: Drug uptake
[46] = Biodistribution in orally dosed human feces assessed as O-dealkyl-O-demethyl muraglitazar level by LC/MS analysis; format: ADME, organism-based; conditions: in vivo, po
[47] = test system: Plasma; test: Biodistribution in orally dosed cynomolgus monkey plasma assessed as O-demethyl muraglitazar glucuronide level after 1 hr by LC/MS analysis; format: ADME, organism-based, Macaca fascicularis; conditions: in vivo, po
[48] = Drug concentration in Beagle dog urine at 2 mg/kg, po after 24 hrs; format: ADME, organism-based, Canis lupus familiaris; set-up: dose 2 mg/kg, route oral; conditions: read-out: Drug uptake
[49] = test system: Plasma; test: Biodistribution in orally dosed Beagle dog plasma assessed as O-demethyl muraglitazar level after 1 hr by LC/MS analysis; format: ADME, organism-based, Canis lupus familiaris; conditions: in vivo, po
[50] = Fecal excretion of compound in bile duct-cannulated orally dosed Sprague-Dawley rat within 24 hrs; format: ADME, organism-based; conditions: faeces, po, read-out: Activity
[51] = Metabolic stability in cynomolgus monkey hepatocytes assessed as muraglitazar glucuronide level by LC/MS analysis relative to control; format: ADME, cell-based, Macaca fascicularis, Hepatocyte
[52] = Drug concentration in bile duct-cannulated cynomolgus monkey feces assessed as recovery of radioactive dose at 5 mg/kg, po after 48 hrs; format: ADME, organism-based, Macaca fascicularis; set-up: dose 5 mg/kg, route oral; conditions: in vivo
[53] = Biodistribution in orally dosed cynomolgus monkey feces assessed as 12-hydroxy muraglitazar level by LC/MS analysis; format: ADME, organism-based, Macaca fascicularis; conditions: in vivo, po

Q: Which results are given for `COc1ccc(OC(=O)N(CC(=O)O)Cc2ccc(OCCc3nc(-c4ccccc4)oc3C)cc2)cc1` [MURAGLITAZAR]?
A: Drug uptake [1]: 0.03%; Drug uptake [2]: 0.9%; Drug uptake [3]: 89%; Drug uptake [4]: 0.8%; Drug uptake [5]: 1%; Drug uptake [6]: < 0.05%; Drug uptake [7]: 9.65%; Drug uptake [8]: 8.2%; Drug uptake [9]: 0.18%; Drug uptake [10]: 0.1%; dose excreted at 8 h [11]: 1.3%; Drug uptake [12]: 0.5%; half-life [13]: 19.8 h; Drug uptake [14]: 0.2%; Drug uptake [15]: 2.83%; Drug uptake [16]: 0.12%; Drug uptake [17]: 12%; Drug uptake [18]: 1%; Drug uptake [19]: 0.05%; Drug uptake [20]: 0.2%; Drug uptake [21]: 0.03%; Drug uptake [22]: 0.26%; Drug uptake [23]: 0.3%; Drug uptake [24]: 0.56%; Cmax [25]: 1 ugequiv/ml; Drug uptake [26]: 1.4%; Drug uptake [27]: 4.4%; Drug uptake [28]: 3.33%; Drug uptake [29]: 87.7%; Stability [30]: 95.6%; dose excreted at 48 h [31]: 30%; Drug uptake [32]: 1%; Drug uptake [33]: 2.5%; Drug uptake [34]: 0.8%; Drug uptake [35]: < 0.2%; Drug uptake [36]: 1.6%; Drug uptake [37]: < 0.2%; Drug uptake [38]: < 0.05%; Drug uptake [39]: 0.5%; Drug uptake [40]: 0.08%; Drug uptake [41]: 0.56%; Drug uptake [42]: 0.8%; Drug uptake [43]: 0.01%; dose excreted at 24 h [44]: 85%; dose excreted at 12 h [45]: 0.51%; Drug uptake [46]: 0.4%; Drug uptake [47]: 0.1%; dose excreted at 24 h [48]: 0.49%; Drug uptake [49]: 1%; dose excreted at 24 h [50]: < 1%; Drug uptake [51]: 1.7%; Drug uptake [52]: 15%; Drug uptake [53]: 7.24%
